For data set [1], the system named is Hepatitis C virus. The data set is described as follows: Antiviral activity against HCV infected in human Huh7.5 cells carrying HCV subgenomic replicons assessed as inhibition of viral replication. The class given is functional, organism-based, Hepacivirus hominis. Background: Replicon systems follow genome replication, usually without infectious particles.
Data set [2] can be described thus: Selectivity index, ratio of CC50 for cytotoxicity against human Huh7.5 cells infected with HCVcc to EC50 for antiviral activity against HCVcc infected in human Huh7.5 cells. The class given is toxicity, cell-based. Conditions: read-out: Ratio CC50/EC50.
A short description of data set [3]: (§1) Cytotoxicity against human Huh7.5 cells assessed as reduction in cell viability incubated for 96 hrs by MTT assay. The class given is toxicity, cell-based, Huh-7.5. To be noted: Huh7.5 cells. In general terms: Tetrazolium assays rely on reduction of a dye to a coloured formazan, in cell work by metabolically active cells.
For a further data set, the system named is Huh-7.5. Described as §1. Type of data set: toxicity, cell-based. Conditions: huh-7.5, 96 h, 96 h.
The test system of data set [4] is Hepatitis C virus. Briefly: Antiviral activity against HCVcc infected in human Huh7.5 cells assessed as inhibition of viral replication. The class given is functional, organism-based, Hepacivirus hominis.
Data set [5] can be described thus: Cytotoxicity against human Huh7.5 cells carrying HCV subgenomic replicons assessed as reduction in cell viability incubated for 96 hrs by MTT assay. The class given is toxicity, cell-based, Huh-7.5.
Data set [6] relates to Hepatitis C virus. The data set is described as follows: Antiviral activity against HCV infected in human Huh7.5 cells incubated for 72 hrs by in-cell western assay. Type of data set: functional, organism-based, Hepacivirus hominis. To be noted: Huh7.5, 72 h.
For the next data set, the system named is Hepacivirus hominis. Briefly: Binding affinity to HCV E1 protein at 12.5 to 200 uM by SPR analysis. To be noted: dose 12.5-200 µM. (Surface plasmon resonance follows binding to a sensor surface in real time, without labels.)
The nature of data set [7]: Cytotoxicity against human Huh7.5 cells infected with HCVcc assessed as reduction in cell viability incubated for 96 hrs by MTT assay. The class given is toxicity, cell-based, Huh-7.5.
Data set [8] deals with Hepatitis C virus. The data set is described as follows: Antiviral activity against HCV infected in human Huh7.5 cells assessed as reduction in HCV core protein expression at 6.4 nM incubated for 72 hrs by in-cell western assay. Type of data set: functional, organism-based. Conditions: Hepacivirus hominis.
In data set [9] the target is Histamine H1 receptor (Homo sapiens) (UniProt P35367). The data set is described as follows: Antagonist activity against H1 receptor (unknown origin) expressed in HEK cells at 1 uM relative to control. Type of data set: functional, cell-based.
Histamine H1 receptor (Homo sapiens), sequence (P35367 whole entry): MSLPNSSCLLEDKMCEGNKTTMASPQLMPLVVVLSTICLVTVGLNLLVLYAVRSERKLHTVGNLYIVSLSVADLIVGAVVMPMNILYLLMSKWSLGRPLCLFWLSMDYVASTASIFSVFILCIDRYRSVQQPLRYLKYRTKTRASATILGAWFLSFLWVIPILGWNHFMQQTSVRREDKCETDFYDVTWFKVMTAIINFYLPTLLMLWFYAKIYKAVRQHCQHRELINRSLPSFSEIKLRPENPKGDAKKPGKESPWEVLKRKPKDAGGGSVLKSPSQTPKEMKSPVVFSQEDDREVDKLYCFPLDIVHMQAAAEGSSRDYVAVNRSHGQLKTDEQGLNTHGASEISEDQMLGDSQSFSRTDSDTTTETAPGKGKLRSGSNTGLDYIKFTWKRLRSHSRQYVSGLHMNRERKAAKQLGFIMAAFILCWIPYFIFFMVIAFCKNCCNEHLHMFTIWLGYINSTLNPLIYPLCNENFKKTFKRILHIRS
The nature of data set [10]: Selectivity index, ratio of CC50 for cytotoxicity against human Huh7.5.1 cells to EC50 for antiviral activity against HCV infected in human Huh7.5.1 cells. Type of data set: toxicity, cell-based.
Data set [11] in a line: MRT in Sprague-Dawley rat at 15 mg/kg, po administered as single dose measured upto 24 hrs by LC-MS/MS analysis. The class given is ADME, organism-based. Conditions: in vivo.
Data set [12] is described as follows: Cmax in Sprague-Dawley rat at 15 mg/kg, po administered as single dose measured upto 24 hrs by LC-MS/MS analysis. Type of data set: ADME, organism-based. Details: route oral, dose 15 mg/kg, time <=24. To be noted: in vivo.
In data set [13] the test system is Hepatitis C virus. The data set is described as follows: Antiviral activity against HCV infected in human Huh7.5 cells assessed as reduction in HCV core protein expression pre-infected with virus for 2 hrs followed by compound addition and measured after 72 hrs by Western blotting analysis. The class given is functional, organism-based. Conditions: Hepacivirus hominis.

The test system of data set [14] is Hepatitis C virus. The data set is described as follows: Antiviral activity against HCV infected in human Huh7.5 cells assessed as reduction in HCV core protein expression measured after 72 hrs by Western blotting analysis. Type of data set: functional, organism-based. To be noted: Hepacivirus hominis.
For data set [15], the system named is Hepatitis C virus. The data set is described as follows: Antiviral activity against HCV infected in human Huh7.5 cells carrying HCV subgenomic replicons assessed as inhibition of viral replication at 1.4 uM. Conditions: Hepacivirus hominis. Type of data set: functional, organism-based.
A short description of data set [16]: Plasma concentration in Sprague-Dawley rat at 15 mg/kg, po administered as single dose measured up to 24 hrs by LC-MS/MS analysis. Type of data set: ADME, organism-based.
In data set [17] the test system is Hepatitis C virus. The data set is described as follows: Antiviral activity against HCV infected in human Huh7.5 cells assessed as reduction in viral RNA level pre-infected with virus for 2 hrs followed by compound addition and measured after 72 hrs by RT-qPCR analysis. The class given is functional, organism-based. To be noted: Hepacivirus hominis.
For data set [18], the system named is Hepatitis C virus. Briefly: Antiviral activity against HCV infected in human Huh7.5 cells assessed as reduction in viral RNA level preincubated for 2 hrs prior to viral infection and measured after 72 hrs by RT-qPCR analysis. Type of data set: functional, organism-based. Conditions: Hepacivirus hominis, time 74.0 hrs.
In data set [19] the test system is Hepatitis C virus. Briefly: Antiviral activity against HCV infected in human Huh7.5 cells assessed as reduction in HCV core protein expression preincubated for 2 hrs followed by viral infection and measured after 72 hrs by Western blotting analysis. Conditions: Hepacivirus hominis, time 74.0 hrs. Type of data set: functional, organism-based.
Data set [20] can be described thus: Half life in Sprague-Dawley rat at 15 mg/kg, po administered as single dose measured upto 24 hrs by LC-MS/MS analysis. The class given is ADME, organism-based. To be noted: in vivo.
A short description of data set [21]: Tmax in Sprague-Dawley rat at 15 mg/kg, po administered as single dose measured upto 24 hrs by LC-MS/MS analysis. Type of data set: ADME, organism-based. Conditions: in vivo.
Data set [22] concerns Hepatitis C virus. The data set is described as follows: Antiviral activity against HCV infected in human Huh7.5 cells assessed as reduction in viral RNA level measured after 72 hrs by RT-qPCR analysis. Type of data set: functional, organism-based. Conditions: Hepacivirus hominis.
Data set [23] in a line: AUC (0 to infinity) in Sprague-Dawley rat at 15 mg/kg, po administered as single dose measured upto 24 hrs by LC-MS/MS analysis. The class given is ADME, organism-based. Details: route oral, dose 15 mg/kg, time <=24. To be noted: in vivo.

The values below come from ChEMBL document CHEMBL5038651, “Design, Synthesis, and Biological Evaluation of 2-((4-Bisarylmethyl-piperazin-1-yl)methyl)benzonitrile Derivatives as HCV Entry Inhibitors” (J Med Chem, 2022).

Active and inactive are the calls of the source.

One may read the EC50 as the concentration needed to bring the measured effect to its halfway point. One may read the CC50 as the concentration giving 50% cytotoxicity. As a reminder, the MRT is a mean duration of stay, worked out from the concentration-time curve. The term Cmax denotes the maximum level reached in the sampled fluid or tissue. Usually half-life stands for the time needed for the level to fall by half in the phase considered. Usually Tmax stands for the time at which the peak concentration occurs. By AUC(0-inf) is commonly meant the area under the concentration-time curve extrapolated to infinity.

Take `CN(C)CCN(C)c1ccc(C#N)c(CN2CCN(c3ccc(Cl)cc3)CC2)c1`: the EC50 with Hepatitis C virus [1] is over 1.6 µM; in the data set with Hepatitis C virus [4], 0.26 µM; in the data set with Hepatitis C virus [6], 0.175 µM. The selectivity ratio was 72 in data set [2], over 114 in data set [10] (read-out: Ratio) and over 81 in [10] (read-out: Ratio CC50/EC50). The CC50 at 96 h in [3] was found to be 21.2 µM; in data set [5], 121 µM; in [7], 18.8 µM. In addition, in the data set on Huh-7.5, the CC50 was over 20 µM. Besides, the outcome with Hepacivirus hominis was Active. The result (in the data set on Hepatitis C virus [8]; in data set [9]) was inactive.
With `CN1CCCN(c2ccc(C#N)c(CN3CCN(C(c4ccc(F)cc4)c4ccc(F)cc4)CC3)c2)CC1`, the MRT in [11] stood at 9.43 h. This compound displayed a Cmax in [12] of 78 ng/mL. The outcome with Hepatitis C virus [13], in the data set with Hepatitis C virus [14], in the data set on Hepatitis C virus [17], in the data set on Hepacivirus hominis and in the data set on Hepatitis C virus [8] was Active. Also, the EC50 in the data set with Hepatitis C virus [1] is over 1.6 µM; in the data set with Hepatitis C virus [4] it was 0.00289 µM; in the data set on Hepatitis C virus [6] it was 0.005 µM. Also, the selectivity ratio in data set [2] was determined as 1140; in data set [10] (read-out: Ratio CC50/EC50), 1130. For the same compound, the result (with Hepatitis C virus [15]; in the data set with Hepatitis C virus [18]; in the data set on Hepatitis C virus [19]; in the data set on Hepatitis C virus [22]; in [9]) was inactive. For the same compound, the CC50 at 96 h stood at 6.24 µM in data set [3], 3.95 µM in data set [5] and 3.31 µM in [7]. Further, the concentration at 24 h in [16] was determined as 4.98 ng/mL. In data set [20], this compound showed a half-life of 5.66 h. Moreover, in [21], the time of peak concentration (Tmax) is 2.69 h. The compound also had an AUC(0-inf) in data set [23] of 639 ng·h/mL.
`CN1CCCN(c2ccc(C#N)c(CN3CCN(C(c4ccccc4)c4ccc(Cl)cc4)CC3)c2)CC1` (stereo not given): in data set [11], the MRT was found to be 8.59 h. Besides, in [12], the Cmax was determined as 97.9 ng/mL. The result in the data set with Hepatitis C virus [13], in the data set with Hepatitis C virus [14], with Hepatitis C virus [17], in the data set with Hepacivirus hominis and in the data set on Hepatitis C virus [8] was Active. The figures for the EC50 in the data set with Hepatitis C virus [1], in the data set with Hepatitis C virus [4] and with Hepatitis C virus [6] were over 1.6 µM, 0.00333 µM and 0.004 µM, respectively. Further, the result (with Hepatitis C virus [15]; in the data set with Hepatitis C virus [18]; with Hepatitis C virus [19]; in the data set on Hepatitis C virus [22]; in data set [9]) was inactive. In addition, the CC50 at 96 h in data set [3] turned out to be 7.34 µM; in [5], 5.22 µM; in data set [7] it was 3.72 µM. The compound further had a concentration at 24 h in [16] of 6.06 ng/mL. In addition, in data set [20], the half-life was 4.87 h. Also, the Tmax in data set [21] worked out at 5.33 h. Further, the AUC(0-inf) in [23] came to 848 ng·h/mL. The selectivity ratio in data set [10] (read-out: Ratio CC50/EC50) is 1930.
